Data reported in patent publication EP0352000A2, “Retroviral protease binding peptides” (SMITHKLINE BECKMAN CORPORATION, priority 1988, dated 1990).
Where a SMILES comes first, the peptide text is derived from it. [ ]: non-standard residue; d: D form. The star is where a group is joined. Sta = CC(C)C[C@H](N)[C@@H](O)CC(=O)O; Isovaleryl = CC(C)CC(=O)*

What was measured:
[1] = biological target: retroviral proteases associated with Moloney murine leukemia virus (Moloney murine leukemia virus, UniProt P03355); conditions: cited from earlier work
retroviral proteases associated with Moloney murine leukemia virus, sequence (P03355 535-659): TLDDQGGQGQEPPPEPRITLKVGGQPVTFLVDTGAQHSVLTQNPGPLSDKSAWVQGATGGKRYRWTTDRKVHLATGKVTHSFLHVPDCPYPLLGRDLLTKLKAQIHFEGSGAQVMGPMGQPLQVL

[2] = biological target: retroviral proteases associated with human T-cell leukemia virus (Human T-cell leukemia virus 1, UniProt P10274); conditions: cited from earlier work
retroviral proteases associated with human T-cell leukemia virus, sequence (P10274 450-574): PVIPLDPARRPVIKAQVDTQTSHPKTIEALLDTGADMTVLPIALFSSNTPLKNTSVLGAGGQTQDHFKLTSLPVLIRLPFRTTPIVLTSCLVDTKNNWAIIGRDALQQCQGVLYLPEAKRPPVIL

[3] = tested on: retroviral proteases associated with bovine leukemia virus; conditions: cited from earlier work
HIV protease = conditions: substrate of HIV protease; MENDT buffer pH 6.0, 37°C
Method: The enzyme used to assay the peptide of this invention was produced in this manner and purified from the cell pellet as follows. The E. coli cell pellet was resuspended in a buffer consisting of 50 mM Tris-­HCl, pH 7.5; 1.0 mM each DTT, EDTA and PMSF (phenylmethylsulfonyl fluoride). The cells were lysed by sonication and insoluble material was removed by centrifugation at 15,000 x g av, for 15 min. The clarified supernatant was then brought to 40% of saturation with ammonium sulfate This suspension was stirred at room temperature for 30 min. and then centrifuged as above. […] The effluent of the column was monitored at 280 nm and 1 min. fractions collected.
Initial rate data for oligopeptides were determined at pH 6.0, 37°C. […] Samples were centrifuged at 17,000 rpm for 5 min., and the peptide substrates and products were separated and quantified (by peak integration) by reverse phase HPLC. Initial rates were determined as (mM peptide product formed)/min based on the percentage of conversion of substrate to product for a given concentration of substrate. […] Kinetic constants (Michaelis constants, maximal velocities) were determined by fitting initial rate data to the Michaelis-Menten equation (v = Vmax(S)/(Km + (S))) using the Fortran program of Cleland (W. W. Cleland, Adv. Enzymol. 29, 1, (1967)). […]

Row | Compound | inhibitor of the retroviral protease [1] | inhibitor of the retroviral protease [2] | inhibitor of the retroviral protease [3] | Km (HIV protease)
1 | CC(C)CC(=O)N[C@H](C(=O)N[C@H](C(=O)N[C@@H](CC(C)C)[C@@H](O)CC(=O)N[C@@H](C)C(=O)N[C@@H](CC(C)C)[C@@H](O)CC(=O)O)C(C)C)C(C)C [pepstatin] (Isovaleryl-VV[Sta]A[Sta]-OH) | weak inhibitor | weak inhibitor | weak inhibitor | –
2 | N-acetyl-L-arginyl-L-alanyl-L-seryl-L-glutaminyl-L-asparaginyl-L-tyrosyl-L-prolyl-L-valyl-L-valinamide | – | – | – | 7 mM
